For this experiment, the target named is T1, GLP-1R (Homo sapiens, UniProt P43220).
T1 construct: expressed in transfected cells; host or cells: HEK293
The experiment can be described thus: GLP-1R agonist assay: CRE6x-LUC luciferase reporter in transiently transfected HEK293 cells. The experiment is classed as cell-based. The procedure: Briefly, HEK293 cells were plated at a density of 2−3×10^3 cells per well onto clear-bottom, white, 96-well plates and grown for 2 days to ˜80% confluency. Cells were then transiently transfected by using Lipofectamine reagent (Invitrogen) with cDNA encoding (1) a GPCR (or empty expression vector); (ii) a cAMP-responsive element-luciferase reporter gene (CRE6X-luc), and (iv) β-galactosidase as a control. Cells were incubated with or without the selected peptide agonist in serum-free medium for 6 h. Luciferase activity was quantified by using Steadylite reagent (Perkin-Elmer). A β-galactosidase assay then was performed after adding the enzyme substrate 2-nitrophenyl β-d-galactopyranoside.
Cellular assays for receptor binding and intracellular signaling were carried out with the compounds of the invention. Briefly, HEK 293 cells were transiently transfected with cDNAs encoding (i) GLP-1R (or the empty expression vector), (ii) the CRE6x-LUC reporter gene (which senses cAMP production triggered by receptor stimulation), and (iii) β-galactosidase (as a control for transfection efficiency). After transfection for 24 h, cells were incubated with a peptide at various concentrations (or control/blank) in serum-free medium for 6 h. The cells were then lysed, SteadyLite reagent (PerkinElmer) is added, and luciferase activity is measured in a TopCount NXT HTS plate luminometer. After further incubation with a chromogenic substrate (2-nitrophenyl β-D-galactopyranoside), optical density at 420 nm is determined by spectrophotometry, as a control to correct for interwell transfection variability. Sigmoidal concentration-response curves of GLP-1R ligand activity is calculated to determine potency.
Plotting concentration versus the luciferase activity yielded quantitative parameters for combined binding (potency) and signaling (efficacy) in a single step. […] DPP4 treated peptides: 10 μl of 0.26 mM peptide were incubated with 2 μL DPP4 in buffer ±DMSO for 18 hrs. Control peptides: 10 μl of 0.26 mM peptide was added to buffer ±DMSO. The final DMSO concentration was the same for all peptides and all peptides were diluted to 0.26 mM concentrations for the DPP4 assay.

The mark [1] stands for this setting: Receptor GLP-1R, agonist potency, read-out: EC50.

Like-named read-outs stand apart in the source and are kept apart here.

T1 sequence (P43220 24-463, species assumed): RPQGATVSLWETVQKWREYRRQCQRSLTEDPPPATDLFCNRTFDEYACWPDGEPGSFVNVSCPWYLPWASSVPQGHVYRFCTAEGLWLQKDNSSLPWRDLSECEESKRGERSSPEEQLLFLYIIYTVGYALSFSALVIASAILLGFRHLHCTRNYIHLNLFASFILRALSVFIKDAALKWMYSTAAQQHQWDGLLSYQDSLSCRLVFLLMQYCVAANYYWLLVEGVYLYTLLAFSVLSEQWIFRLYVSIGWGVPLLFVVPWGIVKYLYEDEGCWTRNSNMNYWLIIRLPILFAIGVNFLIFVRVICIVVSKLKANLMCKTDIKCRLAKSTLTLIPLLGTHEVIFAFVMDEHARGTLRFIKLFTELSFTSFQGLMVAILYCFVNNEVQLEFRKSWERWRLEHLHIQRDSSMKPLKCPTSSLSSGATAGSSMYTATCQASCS

A word on the EC50: it is the midpoint of the concentration-response curve. Consider `CCN[C@@H](Cc1c[nH]cn1)C(=O)N[C@@H](C)C(=O)N[C@@H](CCC(=O)O)C(=O)NCC(=O)N[C@H](C(=O)N[C@@H](Cc1ccccc1)C(=O)N[C@H](C(=O)N[C@@H](CO)C(=O)N[C@@H](CC(=O)O)C(=O)N[C@H](C(=O)N[C@@H](CO)C(=O)N[C@@H](CO)C(=O)N[C@@H](Cc1ccc(O)cc1)C(=O)N[C@@H](CC(C)C)C(=O)N[C@@H](CCC(=O)O)C(=O)NCC(=O)N[C@@H](CCC(N)=O)C(=O)N[C@@H](C)C(=O)N[C@@H](C)C(=O)N[C@@H](CCCCN)C(=O)N[C@@H](CCC(=O)O)C(=O)N[C@@H](Cc1ccccc1)C(=O)N[C@H](C(=O)N[C@@H](C)C(=O)N[C@@H](Cc1c[nH]c2ccccc12)C(=O)N[C@@H](CC(C)C)C(=O)N[C@H](C(=O)N[C@@H](CCCCN)C(=O)NCC(=O)N[C@@H](CCCNC(=N)N)C(N)=O)C(C)C)[C@@H](C)CC)C(C)C)[C@@H](C)O)[C@@H](C)O`, for which the EC50 under setting [1] amounted to 6.4 pM.
For `CC[C@H](C)[C@H](NC(=O)[C@H](Cc1ccccc1)NC(=O)[C@H](CCC(=O)O)NC(=O)[C@H](CCCCN)NC(=O)[C@H](C)NC(=O)[C@H](C)NC(=O)[C@H](CCC(N)=O)NC(=O)CNC(=O)[C@H](CCC(=O)O)NC(=O)[C@H](CC(C)C)NC(=O)[C@H](Cc1ccc(O)cc1)NC(=O)[C@H](CO)NC(=O)[C@H](CO)NC(=O)[C@@H](NC(=O)[C@H](CC(=O)O)NC(=O)[C@H](CO)NC(=O)[C@@H](NC(=O)[C@H](Cc1ccccc1)NC(=O)[C@@H](NC(=O)CNC(=O)[C@H](CCC(=O)O)NC(=O)[C@H](C)NC(=O)[C@H](Cc1c[nH]cn1)NC(C)C)[C@@H](C)O)[C@@H](C)O)C(C)C)C(=O)N[C@@H](C)C(=O)N[C@@H](Cc1c[nH]c2ccccc12)C(=O)N[C@@H](CC(C)C)C(=O)N[C@H](C(=O)N[C@@H](CCCCN)C(=O)NCC(=O)N[C@@H](CCCNC(=N)N)C(N)=O)C(C)C`, the EC50 under setting [1] was 4.1 pM.
As for `CC[C@H](C)[C@H](NC(=O)[C@H](Cc1ccccc1)NC(=O)[C@H](CCC(=O)O)NC(=O)[C@H](CCCCN)NC(=O)[C@H](C)NC(=O)[C@H](C)NC(=O)[C@H](CCC(N)=O)NC(=O)CNC(=O)[C@H](CCC(=O)O)NC(=O)[C@H](CC(C)C)NC(=O)[C@H](Cc1ccc(O)cc1)NC(=O)[C@H](CO)NC(=O)[C@H](CO)NC(=O)[C@@H](NC(=O)[C@H](CC(=O)O)NC(=O)[C@H](CO)NC(=O)[C@@H](NC(=O)[C@H](Cc1ccccc1)NC(=O)[C@@H](NC(=O)CNC(=O)[C@H](CCC(=O)O)NC(=O)[C@H](C)NC(=O)[C@H](Cc1c[nH]cn1)NCC12CC3CC(CC(C3)C1)C2)[C@@H](C)O)[C@@H](C)O)C(C)C)C(=O)N[C@@H](C)C(=O)N[C@@H](Cc1c[nH]c2ccccc12)C(=O)N[C@@H](CC(C)C)C(=O)N[C@H](C(=O)N[C@@H](CCCCN)C(=O)NCC(=O)N[C@@H](CCCNC(=N)N)C(N)=O)C(C)C`, under setting [1], the EC50 worked out at 3.9 pM.
On to `CC[C@H](C)[C@H](NC(=O)[C@H](Cc1ccccc1)NC(=O)[C@H](CCC(=O)O)NC(=O)[C@H](CCCCN)NC(=O)[C@H](C)NC(=O)[C@H](C)NC(=O)[C@H](CCC(N)=O)NC(=O)CNC(=O)[C@H](CCC(=O)O)NC(=O)[C@H](CC(C)C)NC(=O)[C@H](Cc1ccc(O)cc1)NC(=O)[C@H](CO)NC(=O)[C@H](CO)NC(=O)[C@@H](NC(=O)[C@H](CC(=O)O)NC(=O)[C@H](CO)NC(=O)[C@@H](NC(=O)[C@H](Cc1ccccc1)NC(=O)[C@@H](NC(=O)CNC(=O)[C@H](CCC(=O)O)NC(=O)[C@H](C)NC(=O)[C@H](Cc1c[nH]cn1)NCc1ccc(O)cc1)[C@@H](C)O)[C@@H](C)O)C(C)C)C(=O)N[C@@H](C)C(=O)N[C@@H](Cc1c[nH]c2ccccc12)C(=O)N[C@@H](CC(C)C)C(=O)N[C@H](C(=O)N[C@@H](CCCCN)C(=O)NCC(=O)N[C@@H](CCCNC(=N)N)C(N)=O)C(C)C`, for which the EC50 under setting [1] was found to be 1 pM.
Compound `CC[C@H](C)[C@H](NC(=O)[C@H](Cc1ccccc1)NC(=O)[C@H](CCC(=O)O)NC(=O)[C@H](CCCCN)NC(=O)[C@H](C)NC(=O)[C@H](C)NC(=O)[C@H](CCC(N)=O)NC(=O)CNC(=O)[C@H](CCC(=O)O)NC(=O)[C@H](CC(C)C)NC(=O)[C@H](Cc1ccc(O)cc1)NC(=O)[C@H](CO)NC(=O)[C@H](CO)NC(=O)[C@@H](NC(=O)[C@H](CC(=O)O)NC(=O)[C@H](CO)NC(=O)[C@@H](NC(=O)[C@H](Cc1ccccc1)NC(=O)[C@@H](NC(=O)CNC(=O)[C@H](CCC(=O)O)NC(=O)[C@H](C)NC(=O)[C@H](Cc1c[nH]cn1)NC[C@H](C)N)[C@@H](C)O)[C@@H](C)O)C(C)C)C(=O)N[C@@H](C)C(=O)N[C@@H](Cc1c[nH]c2ccccc12)C(=O)N[C@@H](CC(C)C)C(=O)N[C@H](C(=O)N[C@@H](CCCCN)C(=O)NCC(=O)N[C@@H](CCCNC(=N)N)C(N)=O)C(C)C` came in with an EC50 of 2.6 pM.
Regarding `CC[C@H](C)[C@H](NC(=O)[C@H](Cc1ccccc1)NC(=O)[C@H](CCC(=O)O)NC(=O)[C@H](CCCCN)NC(=O)[C@H](C)NC(=O)[C@H](C)NC(=O)[C@H](CCC(N)=O)NC(=O)CNC(=O)[C@H](CCC(=O)O)NC(=O)[C@H](CC(C)C)NC(=O)[C@H](Cc1ccc(O)cc1)NC(=O)[C@H](CO)NC(=O)[C@H](CO)NC(=O)[C@@H](NC(=O)[C@H](CC(=O)O)NC(=O)[C@H](CO)NC(=O)[C@@H](NC(=O)[C@H](Cc1ccccc1)NC(=O)[C@@H](NC(=O)CNC(=O)[C@H](CCC(=O)O)NC(=O)[C@H](C)NC(=O)[C@H](Cc1c[nH]cn1)NCc1ccc(C2(C(F)(F)F)N=N2)cc1)[C@@H](C)O)[C@@H](C)O)C(C)C)C(=O)N[C@@H](C)C(=O)N[C@@H](Cc1c[nH]c2ccccc12)C(=O)N[C@@H](CC(C)C)C(=O)N[C@H](C(=O)N[C@@H](CCCCN)C(=O)NCC(=O)N[C@@H](CCCNC(=N)N)C(N)=O)C(C)C`, the EC50 under setting [1] came to 123 pM.
For the compound `CC[C@H](C)[C@H](NC(=O)[C@H](Cc1ccccc1)NC(=O)[C@H](CCC(=O)O)NC(=O)[C@H](CCCCN)NC(=O)[C@H](C)NC(=O)[C@H](C)NC(=O)[C@H](CCC(N)=O)NC(=O)CNC(=O)[C@H](CCC(=O)O)NC(=O)[C@H](CC(C)C)NC(=O)[C@H](Cc1ccc(O)cc1)NC(=O)[C@H](CO)NC(=O)[C@H](CO)NC(=O)[C@@H](NC(=O)[C@H](CC(=O)O)NC(=O)[C@H](CO)NC(=O)[C@@H](NC(=O)[C@H](Cc1ccccc1)NC(=O)[C@@H](NC(=O)CNC(=O)[C@H](CCC(=O)O)NC(=O)[C@H](C)NC(=O)[C@H](Cc1c[nH]cn1)NC[C@@H](O)[C@@H](O)[C@H](O)[C@H](O)CO)[C@@H](C)O)[C@@H](C)O)C(C)C)C(=O)N[C@@H](C)C(=O)N[C@@H](Cc1c[nH]c2ccccc12)C(=O)N[C@@H](CC(C)C)C(=O)N[C@H](C(=O)N[C@@H](CCCCN)C(=O)NCC(=O)N[C@@H](CCCNC(=N)N)C(N)=O)C(C)C`, the 50% effective concentration (EC50) under setting [1] was found to be 3200 pM.
Same read-out and setting: the figure for `CC[C@H](C)[C@H](NC(=O)[C@H](Cc1ccccc1)NC(=O)[C@H](CCC(=O)O)NC(=O)[C@H](CCCCN)NC(=O)[C@H](C)NC(=O)[C@H](C)NC(=O)[C@H](CCC(N)=O)NC(=O)CNC(=O)[C@H](CCC(=O)O)NC(=O)[C@H](CC(C)C)NC(=O)[C@H](Cc1ccc(O)cc1)NC(=O)[C@H](CO)NC(=O)[C@H](CO)NC(=O)[C@@H](NC(=O)[C@H](CC(=O)O)NC(=O)[C@H](CO)NC(=O)[C@@H](NC(=O)[C@H](Cc1ccccc1)NC(=O)[C@@H](NC(=O)CNC(=O)[C@H](CCC(=O)O)NC(=O)[C@H](C)NC(=O)[C@H](Cc1c[nH]cn1)NCC(C)C)[C@@H](C)O)[C@@H](C)O)C(C)C)C(=O)N[C@@H](C)C(=O)N[C@@H](Cc1c[nH]c2ccccc12)C(=O)N[C@@H](CC(C)C)C(=O)N[C@H](C(=O)N[C@@H](CCCCN)C(=O)NCC(=O)N[C@@H](CCCNC(=N)N)C(N)=O)C(C)C` [drawing 47] is 3.7 pM; for `CC[C@H](C)[C@H](NC(=O)[C@H](Cc1ccccc1)NC(=O)[C@H](CCC(=O)O)NC(=O)[C@H](CCCCN)NC(=O)[C@H](C)NC(=O)[C@H](C)NC(=O)[C@H](CCC(N)=O)NC(=O)CNC(=O)[C@H](CCC(=O)O)NC(=O)[C@H](CC(C)C)NC(=O)[C@H](Cc1ccc(O)cc1)NC(=O)[C@H](CO)NC(=O)[C@H](CO)NC(=O)[C@@H](NC(=O)[C@H](CC(=O)O)NC(=O)[C@H](CO)NC(=O)[C@@H](NC(=O)[C@H](Cc1ccccc1)NC(=O)[C@@H](NC(=O)CNC(=O)[C@H](CCC(=O)O)NC(=O)[C@H](C)NC(=O)[C@H](Cc1c[nH]cn1)NCc1ccccc1)[C@@H](C)O)[C@@H](C)O)C(C)C)C(=O)N[C@@H](C)C(=O)N[C@@H](Cc1c[nH]c2ccccc12)C(=O)N[C@@H](CC(C)C)C(=O)N[C@H](C(=O)N[C@@H](CCCCN)C(=O)NCC(=O)N[C@@H](CCCNC(=N)N)C(N)=O)C(C)C` [drawing 51] it is 4.4 pM.
